From publication PMC5278707, “Structure-Activity Relationships of a Series of Echinocandins and the Discovery of CD101, a Highly Stable and Soluble Echinocandin with Distinctive Pharmacokinetic Properties” (Antimicrobial Agents and Chemotherapy, 2017)
In brackets after ≈: the same amount, converted by molar mass. Like-named read-outs stand apart in the source and are kept apart here.

Legend:
[1] = tested on: Candida albicans ATCC 90028; test: CLSI broth microdilution (M27-A3) MIC; format: cell-based; conditions: 50% reduction in growth
Method: (§1) All yeast and mold isolates were obtained from the American Type Culture Collection (ATCC). Isolates were plated on an agar medium to verify purity, and single colonies were picked. Aspergillus isolates were resubcultured on potato dextrose slants and incubated for 7 days at 35°C. Candida isolates were streaked on SDA plates and incubated for 24 h at 35°C. RPMI 1640 medium (HyClone Laboratories, Logan, UT) and the inoculum for each organism were prepared according to Clinical and Laboratory Standards Institute (CLSI) guidelines ([27][–][29]). Stock solutions for all test articles were prepared in 100% dimethyl sulfoxide (DMSO). Susceptibility testing was performed using CLSI broth microdilution methods for Candida (M27-A3) and Aspergillus (M38-A2). Amphotericin B was tested at a range of 0.06 to 64 μg/ml; all other antifungal agents were tested at 0.015 to 16 μg/ml. Plates were incubated at 35°C and were read from the bottom using a plate viewer after 24 and 48 h for Candida and after 48 h for Aspergillus. MIC values are reported as the lowest drug concentration to yield a 50% reduction in the growth of Candida species tested compared to the control well. Minimum effective concentration (MEC) values are reported as the lowest drug concentration to yield the stunted hyphal growth of Aspergillus species tested compared to that of the control well.

[2] = tested on: Candida glabrata ATCC 90030; test: CLSI broth microdilution (M27-A3) MIC; format: cell-based; conditions: Nakaseomyces glabratus
Method: as §1

[3] = tested on: Candida guilliermondii ATCC 34134; test: CLSI broth microdilution (M27-A3) MIC; format: cell-based; conditions: Meyerozyma guilliermondii, ATCC34134, 50% reduction in growth
Method: as §1

[4] = tested on: Candida krusei ATCC 14243; test: CLSI broth microdilution (M27-A3) MIC; format: cell-based; conditions: Pichia kudriavzevii, ATCC14243, 50% reduction in growth
Method: as §1

[5] = tested on: Candida lusitaniae ATCC 34134; test: CLSI broth microdilution (M27-A3) MIC; format: cell-based; conditions: Clavispora lusitaniae, ATCC34134, 50% reduction in growth, read-out: MIC
Method: as §1

[6] = tested on: Candida parapsilosis ATCC 22019; test: CLSI broth microdilution (M27-A3) MIC; format: cell-based; conditions: Lodderomyces parapsilosis, ATCC22019, 50% reduction in growth
Method: as §1

[7] = tested on: Candida tropicalis ATCC 90874; test: CLSI broth microdilution (M27-A3) MIC; format: cell-based; conditions: 50% reduction in growth
Method: as §1

[8] = tested on: Aspergillus candidus ATCC 13686; test: CLSI broth microdilution (M38-A2) MEC/MIC; format: cell-based
Method: as §1

[9] = tested on: Aspergillus flavus ATCC 22546; test: CLSI broth microdilution (M38-A2) MEC/MIC; format: cell-based
Method: as §1

[10] = tested on: Aspergillus fumigatus ATCC 204305; test: CLSI broth microdilution (M38-A2) MEC/MIC; format: cell-based
Method: as §1

[11] = tested on: Aspergillus fumigatus ATCC MYA-3626; test: CLSI broth microdilution (M38-A2) MEC/MIC; format: cell-based; conditions: 48 h
Method: as §1

[12] = tested on: Aspergillus niger ATCC 16888; test: CLSI broth microdilution (M38-A2) MEC/MIC; format: cell-based
Method: as §1

[13] = tested on: Aspergillus ochraceus ATCC 96919; test: CLSI broth microdilution (M38-A2) MEC/MIC; format: cell-based
Method: as §1

[14] = tested on: Aspergillus clavatus ATCC 10058; test: CLSI broth microdilution (M38-A2) MEC/MIC; format: cell-based; conditions: read at 68 h
Method: as §1, with “Plates were incubated at 35°C and were read from the bottom using a plate viewer after 24 and 48 h for Candida and after 48 h for Aspergillus.” left out

Candida albicans R303 = test: mouse model of disseminated candidiasis, fungal burden in kidneys; format: in vivo; conditions: kidneys at 24 h; for reductions in fungal burden vs infected control (statistical significance): neutropenic CD-1 mice, 0.5, 1.5 or 4.5 mg/kg 2 h after inoculation; for fungal burden relative to limit of detection: neutropenic CD-1 mice, 0.5, 1.5 or 4.5 mg/kg
Method: Candida albicans R303 was grown on Sabouraud dextrose agar (SDA) plates for 24 h at 35°C. Colonies were transferred to phosphate-buffered saline (PBS) and diluted to 3.8 × 10^5 CFU/ml. Female CD-1 mice (Charles River Laboratories, Portage, MI) were rendered neutropenic via injection with cyclophosphamide (150 mg/kg) 5 days and 2 days prior to inoculation. Each animal was infected by injecting 0.1 ml of inoculum into the tail vein. In the treatment groups, animals received 0.5, 1.5, or 4.5 mg/kg of test article 2 h after inoculation. Two groups of untreated, infected controls were used to evaluate fungal burden: at 2 h when test articles were administered in the treatment groups and at 24 h when the treatment groups were sacrificed. Kidneys were harvested at 2 h in one untreated control group and at 24 h in all other groups. The kidneys were homogenized in 2 ml of sterile phosphate-buffered saline, and 0.1-ml aliquots were spread on SDA plates and incubated at 35°C overnight. Fungal burden was determined based on the log10 C. albicans CFU counts from paired kidneys. Data were analyzed using a one-way analysis of variance (ANOVA) and the Dunnett multiple comparisons test comparing the test articles to the infected control group (GraphPad InStat version 3.1; GraphPad Software, San Diego, CA).

[15] = single-dose pharmacokinetics in beagle dogs; conditions: male, beagle, dog, in vivo, iv, 1.4 mg/kg
Method: Four male, nonnaive beagle dogs received a single i.v. infusion (1.4 mg/kg) of test article over 10 min via a catheter placed in the cephalic vein. Blood draws (1.0 ml) were taken at 0.083, 0.33, 0.75, 1.5, 4.5, 12, 24, and 48 h. An additional blood draw at 72 h was obtained for CD101. Blood draws were taken from the jugular vein and were collected into K3 EDTA tubes. Following blood collection, the samples were immediately inverted several times and were held on wet ice pending centrifugation. The samples were centrifuged within ∼30 min of collection under refrigeration (∼5°C for ∼10 min at ∼2,000 g) to obtain plasma. The plasma samples were frozen immediately on dry ice after separation and were stored at approximately −70°C until analysis. Levels of test article in the plasma samples were measured by quantitative liquid chromatography-tandem mass spectrometry (LC-MS/MS) analysis compared to a calibration curve and an internal standard. Pharmacokinetic parameters were calculated from the plasma concentration-time data using standard noncompartmental methods and utilizing WinNonlin analysis software.

Aspergillus spp. = test: CLSI broth microdilution (M38-A2) MEC, whole panel; format: cell-based; conditions: 48 h, summary of Table 3
Method: as §1

| Compound | MIC ([1]; ATCC90028, 24 h) | MIC ([1]; ATCC90028, 48 h) | MIC ([3]; 24 h) | MIC ([3]; 48 h) | MIC ([4]; 24 h) | MIC ([4]; 48 h) | MIC ([5]; 24 h) | MIC ([5]; 48 h) | MIC ([6]; 24 h) | MIC ([6]; 48 h) | MIC ([7]; ATCC90874, 24 h) | MIC ([7]; ATCC90874, 48 h) | reductions in fungal burden vs infected control (statistical significance) (Candida albicans R303) | fungal burden relative to limit of detection (Candida albicans R303) | Vd [15] | half-life [15] | also measured |
| --- | --- | --- | --- | --- | --- | --- | --- | --- | --- | --- | --- | --- | --- | --- | --- | --- | --- |
| C[C@@H]1[C@H](O)[C@@H](C)/C=C/C=C/C=C/C=C/C=C/C=C/C=C/[C@H](O[C@@H]2O[C@H](C)[C@@H](O)[C@H](N)[C@@H]2O)C[C@@H]2O[C@](O)(C[C@@H](O)C[C@@H](O)[C@H](O)CC[C@@H](O)C[C@@H](O)CC(=O)O[C@H]1C)C[C@H](O)[C@H]2C(=O)O [Amphotericin B, amphotericin B] | ≤ 0.06 µg/mL | 0.125 µg/mL (≈ 0.135 µM) | ≤ 0.06 µg/mL | ≤ 0.06 µg/mL | 0.25 µg/mL (≈ 0.271 µM) | 0.5 µg/mL (≈ 0.541 µM) | ≤ 0.06 µg/mL | ≤ 0.06 µg/mL | 0.25 µg/mL (≈ 0.271 µM) | 0.5 µg/mL (≈ 0.541 µM) | 0.25 µg/mL (≈ 0.271 µM) | 0.25 µg/mL (≈ 0.271 µM) |  |  |  |  | MIC ([2]; ATCC90030, 24 h, 50% reduction in growth, read-out: MIC): 0.06 µg/mL (≈ 0.0649 µM); MIC ([2]; ATCC90030, 48 h, 50% reduction in growth, read-out: MIC): 0.25 µg/mL (≈ 0.271 µM); MIC ([8]; Aspergillus candidus, ATCC13686, 48 h): ≤ 0.06 µg/mL; MIC ([9]; Aspergillus flavus, ATCC22546, 48 h): 1 µg/mL (≈ 1.08 µM); MIC ([10]; Aspergillus fumigatus, ATCC204305, 48 h): 1 µg/mL (≈ 1.08 µM); MIC ([11]; Aspergillus fumigatus): 1 µg/mL (≈ 1.08 µM); MIC ([12]; Aspergillus niger, ATCC16888, 48 h): 0.125 µg/mL (≈ 0.135 µM); MIC ([13]; Aspergillus ochraceus, ATCC96919, 48 h): 2 µg/mL (≈ 2.16 µM); MIC ([14]; Aspergillus clavatus, ATCC10058): ≤ 0.06 µg/mL |
| CCCCCOc1ccc(-c2ccc(-c3ccc(C(=O)N[C@H]4C[C@@H](O)[C@@H](NCCNCCO)NC(=O)[C@@H]5[C@@H](O)[C@@H](C)CN5C(=O)[C@H]([C@@H](C)O)NC(=O)[C@H]([C@H](O)[C@@H](O)c5ccc(O)cc5)NC(=O)[C@@H]5C[C@@H](O)CN5C(=O)[C@H]([C@@H](C)O)NC4=O)cc3)cc2)cc1 [Compound 5] |  |  |  |  |  |  |  |  |  |  |  |  | statistically significant (P < 0.01) reductions in fungal burden at all doses | below the limit of detection for at least one of the doses | 0.687 L/kg | 21 h |  |
| CCCCCOc1ccc(-c2ccc(-c3ccc(C(=O)N[C@H]4C[C@@H](O)[C@@H](OCCOCCOC)NC(=O)[C@@H]5[C@@H](O)[C@@H](C)CN5C(=O)[C@H]([C@@H](C)O)NC(=O)[C@H]([C@H](O)[C@@H](O)c5ccc(O)cc5)NC(=O)[C@@H]5C[C@@H](O)CN5C(=O)[C@H]([C@@H](C)O)NC4=O)cc3)cc2)cc1 [Compound 2] |  |  |  |  |  |  |  |  |  |  |  |  |  |  | 0.331 L/kg | 18.9 h |  |
| CCCCCOc1ccc(-c2ccc(-c3ccc(C(=O)N[C@H]4C[C@@H](O)[C@@H](OCCOCCN)NC(=O)[C@@H]5[C@@H](O)[C@@H](C)CN5C(=O)[C@H]([C@@H](C)O)NC(=O)[C@H]([C@H](O)[C@@H](O)c5ccc(O)cc5)NC(=O)[C@@H]5C[C@@H](O)CN5C(=O)[C@H]([C@@H](C)O)NC4=O)cc3)cc2)cc1 [Compound 3] |  |  |  |  |  |  |  |  |  |  |  |  |  | below the limit of detection for at least one of the doses | 0.627 L/kg | 33.7 h |  |
| CCCCCOc1ccc(-c2ccc(-c3ccc(C(=O)N[C@H]4C[C@@H](O)[C@@H](OCCOCCO)NC(=O)[C@@H]5[C@@H](O)[C@@H](C)CN5C(=O)[C@H]([C@@H](C)O)NC(=O)[C@H]([C@H](O)[C@@H](O)c5ccc(O)cc5)NC(=O)[C@@H]5C[C@@H](O)CN5C(=O)[C@H]([C@@H](C)O)NC4=O)cc3)cc2)cc1 [Compound 4] |  |  |  |  |  |  |  |  |  |  |  |  | statistically significant (P < 0.01) reductions in fungal burden at all doses | below the limit of detection for at least one of the doses | 0.361 L/kg | 28.9 h |  |
| CC[C@H](C)C[C@H](C)CCCCCCCCC(=O)N[C@H]1C[C@@H](O)[C@@H](NCCN)NC(=O)[C@@H]2[C@@H](O)CCN2C(=O)[C@H]([C@H](O)CCN)NC(=O)[C@H]([C@H](O)[C@@H](O)c2ccc(O)cc2)NC(=O)[C@@H]2C[C@@H](O)CN2C(=O)[C@H]([C@@H](C)O)NC1=O [Caspofungin, caspofungin] | 0.06 µg/mL (≈ 0.0549 µM) | 0.06 µg/mL (≈ 0.0549 µM) | 0.25 µg/mL (≈ 0.229 µM) | > 16 µg/mL | 0.25 µg/mL (≈ 0.229 µM) | 0.5 µg/mL (≈ 0.457 µM) | 0.25 µg/mL (≈ 0.229 µM) | 0.25 µg/mL (≈ 0.229 µM) | 0.25 µg/mL (≈ 0.229 µM) | 0.5 µg/mL (≈ 0.457 µM) | 0.06 µg/mL (≈ 0.0549 µM) | 0.06 µg/mL (≈ 0.0549 µM) |  |  |  |  | MIC ([2]; ATCC90030, 24 h): 0.125 µg/mL (≈ 0.114 µM); MIC ([2]; ATCC90030, 48 h): 0.125 µg/mL (≈ 0.114 µM); MEC ([8]; 48 h, stunted hyphal growth): ≤0.015 µg/mL; MEC ([9]; 48 h, stunted hyphal growth): 0.06 µg/mL; MEC ([10]; 48 h, stunted hyphal growth): 0.125 µg/mL; MEC ([11]; stunted hyphal growth): 0.125 µg/mL; MEC ([12]; 48 h, stunted hyphal growth): 0.06 µg/mL; MEC ([13]; 48 h, stunted hyphal growth): 0.06 µg/mL; MEC ([14]; stunted hyphal growth): 0.125 µg/mL; MEC values against all Aspergillus species tested (Aspergillus spp.): ≤ 0.125 µg/mL |
